Results: ChEMBL document CHEMBL1201862, “PubChem BioAssay data set” (2004)
The source made the active and inactive calls.

How the values were obtained:
[1] = biological target: Melanin-concentrating hormone receptor 1 (Homo sapiens, UniProt Q99705); experiment: Fluorescence-based counterscreen for antagonists of the G-protein coupled receptor 7 (GPR7): cell-based high throughput dose response assay to identify antagonists of the melanin-concentrating hormone receptor 1 (MCHR1).; type: functional
[2] = biological target: T1, Neuropeptides B/W receptor type 1 (Homo sapiens, UniProt P48145); experiment: Fluorescence-based dose response cell-based high throughput screening assay to identify antagonists of the G-protein coupled receptor 7 (GPR7). [Related pubchem assays: 1952 (Screening assay (GPR7 antagonists).), 1880 (Summary AID.)]; type: functional
T1 sequence (P48145 whole entry): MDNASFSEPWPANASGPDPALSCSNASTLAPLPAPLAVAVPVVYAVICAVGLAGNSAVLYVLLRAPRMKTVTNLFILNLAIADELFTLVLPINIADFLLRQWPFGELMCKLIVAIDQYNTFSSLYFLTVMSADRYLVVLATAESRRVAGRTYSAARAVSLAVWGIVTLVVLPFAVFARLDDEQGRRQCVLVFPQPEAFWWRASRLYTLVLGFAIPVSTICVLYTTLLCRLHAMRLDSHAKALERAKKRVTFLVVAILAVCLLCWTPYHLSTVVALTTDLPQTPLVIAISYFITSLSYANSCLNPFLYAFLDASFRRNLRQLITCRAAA

Cytochrome P450 3A4 = Cytochrome P450 3A4 (Homo sapiens, UniProt P08684);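 note: CYP3A4 tested as one member of a cytochrome P450 panel screen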
HEK293 [3] = experiment: cells; conditions: Homo sapiens
[4] = HepG2 cell cytotoxicity, dose response, cytotoxicity control, ATP luminescence, cherry-pick, activator set 2 (AID 1053143); type: functional, cell-based
HEK293 [5] = experiment: cells; conditions: Homo sapiens; remark: listed apart in the source
Protein RecA = biological target: T2, Protein RecA (Mycobacterium tuberculosis, UniProt P9WHJ3); experiment: Fluorescence Cell-Free Homogeneous Dose Retest to Identify Inhibitors of RecA-Intein Splicing Activity. [Related pubchem assays (depositor defined):AID2097, AID2223, AID489010, AID492950]; type: functional
T2 sequence (P9WHJ3 whole entry): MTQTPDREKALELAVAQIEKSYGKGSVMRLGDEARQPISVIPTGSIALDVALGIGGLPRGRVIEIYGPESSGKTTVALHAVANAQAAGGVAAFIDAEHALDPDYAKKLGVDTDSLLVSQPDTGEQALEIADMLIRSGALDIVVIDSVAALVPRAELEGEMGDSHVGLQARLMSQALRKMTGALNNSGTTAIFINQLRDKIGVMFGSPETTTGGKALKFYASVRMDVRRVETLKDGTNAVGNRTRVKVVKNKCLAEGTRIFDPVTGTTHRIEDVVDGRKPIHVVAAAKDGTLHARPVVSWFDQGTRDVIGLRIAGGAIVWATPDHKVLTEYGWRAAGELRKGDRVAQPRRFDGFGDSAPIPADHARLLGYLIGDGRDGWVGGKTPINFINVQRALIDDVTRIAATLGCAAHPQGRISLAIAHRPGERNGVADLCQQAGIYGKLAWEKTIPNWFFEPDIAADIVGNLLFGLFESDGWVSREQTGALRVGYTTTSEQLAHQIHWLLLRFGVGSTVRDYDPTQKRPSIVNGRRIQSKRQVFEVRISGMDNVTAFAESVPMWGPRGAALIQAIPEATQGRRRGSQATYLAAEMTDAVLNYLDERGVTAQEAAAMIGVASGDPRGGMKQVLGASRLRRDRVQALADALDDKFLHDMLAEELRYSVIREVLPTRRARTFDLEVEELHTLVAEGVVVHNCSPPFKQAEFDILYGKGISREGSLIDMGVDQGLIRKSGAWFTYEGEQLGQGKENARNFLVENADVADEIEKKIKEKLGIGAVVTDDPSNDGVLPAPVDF

[6] = biological target: T3, Replicative DNA helicase DnaB (Mycobacterium tuberculosis, UniProt P9WMR3); experiment: DnaB intein splicing inhibitors, dose response, biochemical, cell-free fluorescence (AID 449749); type: functional
T3 sequence (P9WMR3 whole entry): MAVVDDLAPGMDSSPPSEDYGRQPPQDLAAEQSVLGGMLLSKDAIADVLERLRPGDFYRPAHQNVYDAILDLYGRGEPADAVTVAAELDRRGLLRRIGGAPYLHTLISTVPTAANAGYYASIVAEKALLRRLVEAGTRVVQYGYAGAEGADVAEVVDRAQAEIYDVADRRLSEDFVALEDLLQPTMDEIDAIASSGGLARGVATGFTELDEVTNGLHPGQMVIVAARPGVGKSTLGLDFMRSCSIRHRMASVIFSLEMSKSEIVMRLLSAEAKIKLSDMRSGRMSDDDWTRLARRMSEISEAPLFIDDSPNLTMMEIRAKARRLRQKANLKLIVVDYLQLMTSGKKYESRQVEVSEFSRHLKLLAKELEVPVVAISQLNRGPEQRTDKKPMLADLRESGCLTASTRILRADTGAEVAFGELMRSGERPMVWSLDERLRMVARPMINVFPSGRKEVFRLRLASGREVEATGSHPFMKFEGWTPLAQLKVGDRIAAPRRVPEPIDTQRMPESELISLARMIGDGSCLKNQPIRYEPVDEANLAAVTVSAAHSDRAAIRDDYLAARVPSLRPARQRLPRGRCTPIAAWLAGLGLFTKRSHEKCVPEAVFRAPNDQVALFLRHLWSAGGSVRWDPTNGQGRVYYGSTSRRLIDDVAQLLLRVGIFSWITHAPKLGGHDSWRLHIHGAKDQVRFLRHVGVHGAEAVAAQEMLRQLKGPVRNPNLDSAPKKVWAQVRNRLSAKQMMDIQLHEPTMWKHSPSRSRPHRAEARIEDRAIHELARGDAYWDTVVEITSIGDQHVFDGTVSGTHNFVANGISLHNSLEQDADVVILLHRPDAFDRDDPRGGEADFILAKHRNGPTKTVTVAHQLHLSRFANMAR

[7] = biological target: T4, Microphthalmia-associated transcription factor (Homo sapiens, UniProt O75030); experiment: TRPM1 promoter luciferase signal decrease, dose response, MITF inhibitor project, cell-based, SK-MEL-5, cherry-picked, set 3 (AID 493073); type: functional
T4 sequence (O75030 whole entry): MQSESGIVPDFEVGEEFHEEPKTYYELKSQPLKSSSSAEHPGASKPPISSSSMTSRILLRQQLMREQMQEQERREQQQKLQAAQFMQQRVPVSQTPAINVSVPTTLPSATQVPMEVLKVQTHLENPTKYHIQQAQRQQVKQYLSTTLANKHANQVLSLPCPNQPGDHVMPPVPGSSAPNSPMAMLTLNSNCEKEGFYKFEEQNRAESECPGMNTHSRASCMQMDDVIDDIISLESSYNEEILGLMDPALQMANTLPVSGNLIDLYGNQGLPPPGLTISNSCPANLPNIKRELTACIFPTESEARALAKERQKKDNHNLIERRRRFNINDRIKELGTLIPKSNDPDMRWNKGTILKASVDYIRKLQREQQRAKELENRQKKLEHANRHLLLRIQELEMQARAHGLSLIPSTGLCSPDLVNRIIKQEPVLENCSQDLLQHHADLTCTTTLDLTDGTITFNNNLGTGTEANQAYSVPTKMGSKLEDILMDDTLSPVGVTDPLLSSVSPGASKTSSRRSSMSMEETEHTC

[8] = tested on: Streptococcus sp. 'group A'; experiment: growth inhibition of control SK(-) GAS strain, dose response, counter-screen for streptokinase expression inhibitor project, luminescence, kanamycin, BacTiterGlo, confirmation (AID 1900); type: functional, organism-based
Streptokinase A = biological target: T5, Streptokinase A (Streptococcus pyogenes serotype M1, UniProt P10520); experiment: S. pyogenes streptokinase expression inhibitors, potency, dose response, plasminogen activation absorbance, OD405 (AID 1914); type: functional, Streptococcus pyogenes M1 GAS;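 note: secreted streptokinase activity via plasminogen activation per viability signal from cell pellet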
T5 sequence (P10520 whole entry): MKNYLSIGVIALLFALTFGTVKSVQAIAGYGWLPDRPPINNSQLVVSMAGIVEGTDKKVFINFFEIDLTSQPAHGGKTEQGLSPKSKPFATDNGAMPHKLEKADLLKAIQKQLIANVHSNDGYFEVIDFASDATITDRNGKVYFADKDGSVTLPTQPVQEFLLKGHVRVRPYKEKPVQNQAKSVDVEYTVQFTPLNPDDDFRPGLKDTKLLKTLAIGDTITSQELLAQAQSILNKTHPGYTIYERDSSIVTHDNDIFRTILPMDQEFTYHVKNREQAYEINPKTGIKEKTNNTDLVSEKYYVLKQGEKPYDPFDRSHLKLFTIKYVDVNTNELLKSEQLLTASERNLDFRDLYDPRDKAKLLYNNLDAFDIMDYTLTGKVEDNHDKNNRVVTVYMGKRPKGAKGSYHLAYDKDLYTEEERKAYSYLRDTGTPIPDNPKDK

Streptococcus = experiment: Group A Streptococcus viability loss, dose response, counter-screen for streptokinase expression inhibitor project, luminescence, BacTiterGlo (AID 1915); type: functional, organism-based;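 note: potency for reduction of bacterial viability or growth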
[9] = inhibitors of intracellular T. cruzi replication, confirmation, NIH3T3 host cells, beta-gal luminescence (AID 2044); type: functional, cell-based;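 note: intracellular parasites grown in NIH/3T3 mouse fibroblasts as host cells; luminescent beta-galactosidase reporter signal from transgenic T. cruzi replicating inside host cells; inhibitors lower the luminescence signal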
[10] = biological target: T6, Heat shock factor protein 1 (Mus musculus, UniProt P38532); experiment: HSF1 potentiators in luciferase reporter cells, confirmation, cell-based, NIH3T3, luminescence, dose retest (AID 435004); type: functional;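 note: stress induced by proteasome inhibitor MG132 added 30 min after compound; luciferase reporter driven by HSF1 response element in NIH3T3 cells; actives raise luminescence as potentiators of the MG132 stress response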
T6 sequence (P38532 whole entry): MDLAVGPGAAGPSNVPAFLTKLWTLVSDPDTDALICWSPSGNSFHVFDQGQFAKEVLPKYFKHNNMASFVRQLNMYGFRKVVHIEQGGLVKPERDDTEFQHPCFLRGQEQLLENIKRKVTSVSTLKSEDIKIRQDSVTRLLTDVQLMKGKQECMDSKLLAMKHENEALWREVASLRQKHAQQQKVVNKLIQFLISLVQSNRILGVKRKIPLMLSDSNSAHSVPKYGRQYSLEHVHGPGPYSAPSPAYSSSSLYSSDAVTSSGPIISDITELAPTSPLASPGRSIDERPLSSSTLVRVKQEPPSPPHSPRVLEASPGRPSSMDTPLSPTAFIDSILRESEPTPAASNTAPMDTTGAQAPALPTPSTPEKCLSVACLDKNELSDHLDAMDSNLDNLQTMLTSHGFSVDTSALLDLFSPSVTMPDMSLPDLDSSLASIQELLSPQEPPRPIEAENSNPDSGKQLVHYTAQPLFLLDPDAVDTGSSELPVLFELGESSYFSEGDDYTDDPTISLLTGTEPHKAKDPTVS

[11] = microbe, parasite or virus in culture; type: functional; conditions: Mycobacterium tuberculosis
[12] = THP-1 cell cytotoxicity, dose response, cytotoxicity control for non-replicating M. tuberculosis project (AID 489025); type: functional
[13] = Vero E6 cell cytotoxicity, dose response, cytotoxicity control for non-replicating M. tuberculosis project, secondary assay (AID 492998); type: functional, VeroE6; conditions: Vero C1008
[14] = HepG2 cell cytotoxicity, dose response, cytotoxicity control for non-replicating M. tuberculosis project (AID 489018); type: functional; conditions: Mycobacterium tuberculosis
[15] = cytotoxicity toward NIH3T3 fibroblasts, dose response, counter-screen, cell-based, ATP luminescence, mouse fibroblasts (AID 2010); type: functional;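 note: cells exposed to compound for about 90 hours before reading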
A-375 = experiment: MITF: Counter assay: A375 proliferation Measured in Cell-Based System Using Plate Reader - 2084-03_Inhibitor_Dose_DryPowder_Activity. [Related pubchem assays (depositor defined):AID488944]; type: functional; conditions: Homo sapiens
cells = type: functional
Escherichia coli = experiment: microbe, parasite or virus in culture
Cytochrome P450 2C9 = Cytochrome P450 2C9 (Homo sapiens, UniProt P11712)
Sequence of Cytochrome P450 2C9 (P11712 whole entry): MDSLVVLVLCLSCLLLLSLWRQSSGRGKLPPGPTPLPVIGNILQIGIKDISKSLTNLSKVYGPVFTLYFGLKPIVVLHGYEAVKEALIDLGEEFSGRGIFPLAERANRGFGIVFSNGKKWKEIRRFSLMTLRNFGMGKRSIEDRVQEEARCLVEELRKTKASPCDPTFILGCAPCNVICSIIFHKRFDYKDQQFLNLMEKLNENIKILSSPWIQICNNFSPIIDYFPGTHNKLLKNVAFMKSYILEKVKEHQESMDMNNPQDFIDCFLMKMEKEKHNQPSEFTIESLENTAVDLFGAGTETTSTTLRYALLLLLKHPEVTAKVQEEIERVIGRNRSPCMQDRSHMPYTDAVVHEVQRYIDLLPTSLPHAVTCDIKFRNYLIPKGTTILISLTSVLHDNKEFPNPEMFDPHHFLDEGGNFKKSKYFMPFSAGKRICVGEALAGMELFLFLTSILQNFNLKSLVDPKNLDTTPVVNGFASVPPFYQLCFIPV

Sequence of Cytochrome P450 3A4 (P08684 whole entry): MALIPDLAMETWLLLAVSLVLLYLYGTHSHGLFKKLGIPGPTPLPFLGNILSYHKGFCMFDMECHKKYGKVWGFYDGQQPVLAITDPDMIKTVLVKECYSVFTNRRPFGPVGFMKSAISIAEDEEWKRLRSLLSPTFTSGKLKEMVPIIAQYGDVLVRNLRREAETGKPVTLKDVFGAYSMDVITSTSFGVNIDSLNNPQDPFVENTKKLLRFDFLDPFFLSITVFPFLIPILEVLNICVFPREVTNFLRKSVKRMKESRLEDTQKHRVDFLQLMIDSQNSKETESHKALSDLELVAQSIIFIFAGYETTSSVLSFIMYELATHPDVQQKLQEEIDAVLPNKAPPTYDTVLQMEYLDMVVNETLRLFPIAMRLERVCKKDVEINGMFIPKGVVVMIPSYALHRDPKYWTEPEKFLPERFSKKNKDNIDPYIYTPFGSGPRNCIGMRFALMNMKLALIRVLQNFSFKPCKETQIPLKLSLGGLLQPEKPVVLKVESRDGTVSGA
Sequence of Melanin-concentrating hormone receptor 1 (Q99705 whole entry): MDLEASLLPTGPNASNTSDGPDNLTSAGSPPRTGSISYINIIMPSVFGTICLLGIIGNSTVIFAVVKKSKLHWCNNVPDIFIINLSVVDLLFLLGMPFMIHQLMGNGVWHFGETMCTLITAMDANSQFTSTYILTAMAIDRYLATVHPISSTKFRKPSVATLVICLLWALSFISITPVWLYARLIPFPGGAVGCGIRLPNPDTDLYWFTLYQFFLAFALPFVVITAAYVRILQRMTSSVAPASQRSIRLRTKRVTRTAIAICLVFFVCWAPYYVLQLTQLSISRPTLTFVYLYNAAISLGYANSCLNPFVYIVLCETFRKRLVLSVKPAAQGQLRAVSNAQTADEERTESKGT

## Cc1ccccc1Oc1ncnc2oc(-c3ccccc3)cc12
[1]
  IC50: 24.3 µM (not active)
[2]
  IC50: > 43.8 µM (not active)
Cytochrome P450 3A4
  AC50: inconclusive

## COc1ccccc1NC(=O)c1cnc(SCC(=O)NCC2CCCO2)n(C)c1=O (stereo not given)
HEK293 [3]
  EC50: > 59.6 µM (inactive)
[4]
  AC50: 42.4 µM (active)
HEK293 [5]
  EC50: > 59.6 µM (inactive)
Protein RecA
  EC50: 10.8 µM (active)
[6]
  AC50: 9.19 µM (active)
[7]
  AC50: 8.88 µM (active)

## Fc1ccc(-n2cc(-c3ccccc3)c3c(S)ncnc32)cc1
HEK293 [3]
  EC50: > 59.6 µM (inactive)
[8]
  EC50: 12.1 µM (active)
Streptokinase A
  EC50: > 150 µM (not active)
Streptococcus
  EC50: > 150 µM (not active)
HEK293 [5]
  EC50: > 59.6 µM (inactive)

## CC(C)(C)c1ccc(Cn2c(=N)n(CC(O)c3ccco3)c3ccccc32)cc1 (stereo not given)
[9]
  EC50: 2.12 µM (active)
[10]
  EC50: > 260 µM (inactive)
[11]
  CC50: 11.9 µM (active)
[12]
  CC50: 9.05 µM (active)
[13]
  CC50: 15.7 µM (active)
[14]
  CC50: 9.26 µM (active)
[15]
  EC50: > 60 µM (not active)
[7]
  AC50: 11.8 µM (active)
A-375
  AC50: 18.6 µM (active)
cells
  IC50: 22 µM (active)

## O=C(Nc1ccccc1F)c1ccc([N+](=O)[O-])s1
[9]
  EC50: 0.614 µM (active)
[12]
  CC50: 28.8 µM (active)
[13]
  CC50: > 20 µM (active)
Escherichia coli
  AC50: 27.5 µM (active)
[15]
  EC50: > 30 µM (not active)
cells
  IC50: 4.91 µM (active)

## CCOC(=O)N1CCN(CC(=O)c2ccc3c(c2)CCN3)CC1
Cytochrome P450 3A4
  AC50: inconclusive
Cytochrome P450 2C9
  AC50: 17.8 µM (inconclusive)

## CO[C@H]1C=CO[C@@]2(C)Oc3c(C)c(O)c4c(O)c(c(C=NN5CCN(C)CC5)c(O)c4c3C2=O)NC(=O)C(C)=CC=C[C@H](C)[C@H](O)[C@@H](C)[C@@H](O)[C@@H](C)[C@H](OC(C)=O)[C@@H]1C
[8]
  EC50: < 0.06 µM (active)
Streptococcus
  EC50: < 0.06 µM (active)
Escherichia coli
  AC50: 14.8 µM (active)
